Results: patent publication US20260041744A1, “Methods for Treating Pompe Disease” (Amicus Therapeutics, Inc., priority 2022, published 2026)
Entries after “also recorded” stand apart in the source; their conditions may differ.

Legend:
Type in all cases: in vivo, human
[1] = system: adult subjects with LOPD; assay: Study ATB200-07 (OLE of PROPEL): 6MWD and % predicted 6MWD; settings: change from ATB200-03 baseline at Week 104; alglucosidase alfa/placebo group switched to cipaglucosidase alfa/miglustat at Week 52; OLE-ES excluding Subject 4005-2511
Source text: The study doses and schedule are maintained from Study ATB200-03.
Efficacy data are presented in this summary as change from the baseline of Study ATB200-03 (OLE-ES Population).

[2] = system: adult subjects with late-onset Pompe disease (LOPD); assay: Study ATB200-03: global test and responder analyses on 6MWD, FVC, MMT
Source text: To support the interpretation of clinical benefit, a composite subject-level response was defined based on the totality of the treatment outcome data. Subjects were classified by an ordinal response variable consisting of significant improvement, moderate improvement, or minor/no improvement based on treatment outcomes.
Thresholds for clinically relevant changes for 6MWD and FVC in Pompe specifically are not well established, however a large body of data exists from other neuromuscular and chronic respiratory diseases, especially interstitial pulmonary fibrosis (IPF). […] Accordingly, these thresholds were applied to analyses of Study ATB200-03 data.
Additional post hoc patient-level analyses were conducted using these thresholds for 6MWD (±6%) and FVC (±3%) separately and combined.

[3] = system: adult subjects with late-onset Pompe disease (LOPD); assay: Study ATB200-03 (PROPEL): PROMIS-Physical Function; settings: for CHG to Week 52 in PROMIS-Physical Function total score, LS Mean / CHG to Week 52 in PROMIS-Physical Function total score, LS Mean Treatment Difference: MMRM; for CHG to Week 52 in PROMIS-Physical Function total score, LS Mean: actual time point of assessments; for PROMIS-Physical Function Short Form 20a total score CHG, LS means (SE) / PROMIS-Physical Function Short Form 20a total score CHG, Difference of LS means (SE) (cipaglucosidase alfa/miglustat − alglucosidase alfa/placebo): Week 52; for CHG to Week 52 in PROMIS-Physical Function total score, LS Mean Treatment Difference: actual time point; for PROMIS physical function outcome: overall and ERT-experienced populations
Procedure: The test for the primary endpoint was conducted first at the 1-sided 0.025 significance level, and if significant, the ordered key secondary endpoints were similarly tested at the same significance level. The statistical significance of the key secondary endpoints was interpreted following a hierarchical testing order, each at the 1-sided alpha level of 0.025. […] Primary analyses of efficacy were performed using the mixed-effect model for repeated measures (MMRM) for 6MWD in Intent-to-treat Observed Population (ITT) that includes all available, observed data without any missing data imputation (ITT-OBS) and analysis of covariance (ANCOVA) for all other endpoints in the Intent-to-Treat-Last Observation Carried Forward (ITT-LOCF) Population. A nonparametric randomization based ANCOVA was specified as the first sensitivity analysis for 6MWD and FVC. […] For the purposes of data presentation in this document, 2-sided p-values are reported hereafter, except as otherwise noted.

[4] = system: adult subjects with LOPD; assay: Study ATB200-07 (OLE): PROMIS-Physical Function
Source text: Analysis populations presented in this summary are 1) the OLE-ES Population (all subjects who satisfied the eligibility requirements (based on the inclusion and exclusion criteria) and entered Study ATB200-07 and 2) the OLE-FAS Population (all subjects who entered the OLE Study ATB200-07 who had both a valid ATB200-07 baseline and at least 1 post-baseline assessment for at least 1 of the 6 main efficacy endpoints [6MWD, sitting % predicted FVC, MMT-lower extremities, PROMIS-Physical Function, PROMIS-Fatigue, and GSGC]).

[5] = Excluding Subject 4005-2511, change from baseline to Week 52, 2-sided p 0.010
[6] = ITT Population, change from baseline to Week 52, 2-sided p 0.022
[7] = Week 52-LOCF, ERT-experienced Population
[8] = Week 52-LOCF, ERT-naïve Subjects excluding Subject 4005-2511
[9] = Week 52-LOCF, ITT excluding Subject 4005-2511

Substance: ATB200/miglustat: two-component therapy: cipaglucosidase alfa (ATB200) administered in conjunction with miglustat (AT2221), a stabilizer of cipaglucosidase alfa
- 6MWD, mean 104-wk CFB [1]: 20.2 m
- Wilcoxon rank sum test on sum of ranks for 6MWD and % predicted FVC: Mean Score [2, 5]: 66.5
- Wilcoxon rank sum test on sum of ranks for 6MWD and % predicted FVC: Sum of Scores [2, 5]: 5587.5
- Wilcoxon rank sum test on sum of ranks for 6MWD and FVC: Mean Score [2, 6]: 66.5
- Wilcoxon rank sum test on sum of ranks for 6MWD and FVC: Sum of Scores [2, 6]: 5587.5
- post hoc global test on 6MWD and % predicted FVC ([2]; Wilcoxon rank-sum on summed ranks, listed as cipaglucosidase alfa/miglustat): greater improvement in either 6MWD or FVC; also recorded: greater improvement in subjects treated with cipaglucosidase alfa/miglustat versus alglucosidase alfa/placebo
- patient-level responder analyses 6MWD, FVC, MMT ([2]; thresholds ±6%, ±3%, ±7%, overall population, listed as cipaglucosidase alfa/miglustat): a greater proportion of subjects in the overall population treated with cipaglucosidase alfa/miglustat demonstrated clinically meaningful improvement and a smaller proportion demonstrated clinically meaningful worsening across these 3 endpoints; also recorded: significantly greater proportion of subjects with improvement on both domains
- PROMIS-Physical Function Short Form 20a total score Absolute Value, Median ([3]; Baseline, ITT, ERT-naïve Subjects excluding Subject 4005-2511): 76.00
- PROMIS-Physical Function Short Form 20a total score Absolute Value, Mean ([3]; Baseline, ITT, ERT-naïve Subjects excluding Subject 4005-2511, score 20 to 100, higher = less impact): 74.65
- mean (SD) change in PROMIS-Physical Function total score from baseline to Week 52 ([3]; ERT-experienced Population): 1.8 (7.18)
- mean (SD) change in PROMIS-Physical Function total score from baseline to Week 52 ([3]; ERT-naïve excluding Subject 4005-2511): 2.5 (8.62)
- Change in PROMIS-Physical Function total score baseline to Week 52, LS means (SE) from ANCOVA ([3]; ITT-LOCF, ERT-naïve Subjects excluding Subject 4005-2511): 1.87 (1.917)
- CHG to Week 52 in PROMIS-Physical Function total score, LS Mean ([3]; ITT-OBS excluding Subject 4005-2511 (overall)): 2.2
- CHG to Week 52 in PROMIS-Physical Function total score, LS Mean ([3]; ITT-OBS excluding Subject 4005-2511, ERT-naïve Subjects): 2.6
- CHG to Week 52 in PROMIS-Physical Function total score, LS Mean ([3]; ITT-OBS, ERT-experienced Subjects): 2.0
- PROMIS-Physical Function Short Form 20a total score Absolute Value, Mean (SD) [3, 7]: 66.19 (12.325)
- PROMIS-Physical Function Short Form 20a total score Absolute Value, Median [3, 7]: 66.00
- PROMIS-Physical Function Short Form 20a total score CHG, Mean (SD) [3, 7]: 1.76 (7.179)
- PROMIS-Physical Function Short Form 20a total score CHG, Median [3, 7]: 0.50
- PROMIS-Physical Function Short Form 20a total score Absolute Value, Mean [3, 8]: 77.15
- PROMIS-Physical Function Short Form 20a total score Absolute Value, Median [3, 8]: 77.50
- PROMIS-Physical Function Short Form 20a total score CHG (change from baseline), Mean [3, 8]: 2.50
- PROMIS-Physical Function Short Form 20a total score CHG (change from baseline), Median [3, 8]: 0.00
- PROMIS-Physical Function Short Form 20a total score Absolute Value, Mean (SD) [3, 9]: 68.80 (12.954)
- PROMIS-Physical Function Short Form 20a total score Absolute Value, Median [3, 9]: 68.00
- PROMIS-Physical Function Short Form 20a total score CHG, Mean (SD) [3, 9]: 1.94 (7.498)
- PROMIS-Physical Function Short Form 20a total score CHG, Median [3, 9]: 0.00
- PROMIS-Physical Function Short Form 20a total score CHG, LS means (SE) ([3]; ANCOVA, ITT-LOCF excluding Subject 4005-2511): 1.98 (0.921)
- PROMIS-Physical Function Short Form 20a total score CHG, Difference of LS means (SE) (cipaglucosidase alfa/miglustat − alglucosidase alfa/placebo) ([3]; ANCOVA, ITT-LOCF excluding Subject 4005-2511, 2-sided p 0.276): 1.87 (1.706)
- PROMIS-Physical Function Short Form 20a total score CHG, LS means (SE) ([3]; ANCOVA, ITT-LOCF, ERT-experienced Population): 1.90 (1.071)
- PROMIS-Physical Function Short Form 20a total score CHG, Difference of LS means (SE) (cipaglucosidase alfa/miglustat − alglucosidase alfa/placebo) ([3]; ANCOVA, ITT-LOCF, ERT-experienced Population, 2-sided p 0.110): 3.14 (1.948)
- LS Mean Treatment Difference (SE), CHG to Week 52 in PROMIS-Physical Function total score ([3]; cipaglucosidase alfa/miglustat − alglucosidase alfa/placebo, ITT-LOCF, ANCOVA, 2-sided p 0.426): 1.37 (1.714)
- Change in PROMIS-Physical Function total score baseline to Week 52, Difference of LS means (SE) from ANCOVA ([3]; cipaglucosidase alfa/miglustat − alglucosidase alfa/placebo, ITT-LOCF, ERT-naïve Subjects excluding Subject 4005-2511): −5.09 (4.288)
- CHG to Week 52 in PROMIS-Physical Function total score, LS Mean Treatment Difference ([3]; cipaglucosidase alfa/miglustat − alglucosidase alfa/placebo, ITT-OBS excluding Subject 4005-2511 (overall)): 2.5
- CHG to Week 52 in PROMIS-Physical Function total score, LS Mean Treatment Difference ([3]; cipaglucosidase alfa/miglustat − alglucosidase alfa/placebo, ITT-OBS excluding Subject 4005-2511, ERT-naïve Subjects): −3.1
- CHG to Week 52 in PROMIS-Physical Function total score, LS Mean Treatment Difference ([3]; cipaglucosidase alfa/miglustat − alglucosidase alfa/placebo, ITT-OBS, ERT-experienced Subjects): 3.5
- PROMIS physical function outcome [3]: PROMIS physical function numerically favored ATB200/miglustat treatment
- PROMIS physical function outcome ([3]; listed as AT-GAA): improved numerically more than alglucosidase alfa treated patients
- mean (SD) change in PROMIS-Physical Function total score from baseline to Week 52 ([3]; overall population): 1.9 (7.50)
- PROMIS-Physical Function, mean BSL ([4]; Study ATB200-03 baseline, OLE-ES Population excluding Subject 4005-2511): 67.0
- PROMIS-Physical Function, mean 52-wk CFB ([4]; change from ATB200-03 baseline at Week 52, OLE-ES excluding Subject 4005-2511): 2.2
- PROMIS-Physical Function, mean 104-wk CFB ([4]; change from ATB200-03 baseline at Week 104, alglucosidase alfa/placebo group switched to cipaglucosidase alfa/miglustat at Week 52, OLE-ES excluding Subject 4005-2511): 2.3
